“Also recorded” adds a separate entry of the source.
How the values were obtained:
Assay type in all cases: cell-based, Human
hTERT RPE-1 cells [1] = test: Immunoblotting of HR factor abundance; conditions: 5 μM ATRi, 8 days
Description: (§1) FIGS. 14A-14B show WB analysis of hTERT RPE-1 (FIG. 14A) or HCT116 (colon cancer)(FIG. 14B) cells after 8 day chronic treatment with 5 μM ATRi or ATMi. […] FIGS. 14D-14E are bar graphs showing the analysis of HR-mediated repair using the DR-GFP system. Relative fold change of GFP positive hTERT RPE-1 (FIG. 14D) or HCT116 (FIG. 14E) cells over DMSO after ATRi treatment. (Error bars=SEM, N≥3, ****P-value<0.0001; one sample-t-test was used for the statistical analysis comparing 2 days versus 8 days of treatment).
(§2) Human U2OS, HCT116, hTERT RPE-1, HEK293T, HeLa, U87, T98G, A2780, and human skin fibroblast cells (GM08398 and GM18366) were grown in DMEM media supplemented with 10% bovine calf serum, penicillin/streptomycin and non-essential amino acids. […]
(§3) Cells were harvested and lysed in modified radioimmunoprecipitation assay (RIPA) buffer (50 mM Tris-HCl pH 7.5, 150 mM NaCl, 1% tergitol, 0.25% sodium deoxycholate, 5 mM EDTA) supplemented with Complete EDTA-free protease inhibitor cocktail (Roche), 1 mM PMSF, 5 mM sodium fluoride, 10 mM β-glycerol-phosphate and 0.4 mM sodium orthovanadate. […] After being resolved on SDS-PAGE gels, proteins were then transferred onto polyvinylidene difluoride (PVDF) membranes and detected with designated antibodies.

U2OS cells [2] = test: Immunoblotting of HR factor abundance
Description: FIG. 5A is a schematic diagram of the SILAC/MS experiment. FIG. 5B is a quadrant diagram of the SILAC/MS experiment. Each dot represents a different identified protein. Proteins with abundance reduced two-fold or more after ATRi treatment are shown in the upper-left corner (white quadrant). FIG. 5C is a WB analysis of U2OS cells after 8 days of chronic treatment with 5 μM of ATRi or ATMi. FIG. 5D is a time course WB analysis of U2OS cells during chronic treatment with 5 μM ATRi. FIG. 5E is a WB analysis of U2OS cells at distinct cell cycle stages. Cells were treated with 1 mM hydroxyurea (HU) or 50 ng/ml nocodazole (Noc) for 24 hours. HU treated cells were released for 2.5 hours in HU-free media. FIG. 5F is a WB analysis of U2OS cells untreated or treated for 8 days with 5 μM ATRi.
(§4) Human U2OS, HCT116, hTERT RPE-1, HEK293T, HeLa, U87, T98G, A2780, and human skin fibroblast cells (GM08398 and GM18366) were grown in DMEM media supplemented with 10% bovine calf serum, penicillin/streptomycin and non-essential amino acids. SV40 large T antigen transformed hTERT RPE-1 cells were generated by infecting hTERT RPE-1 cells with a SV40 large T antigen (SV40 LT)-expressing retrovirus and were selected using 500 μg/ml G418. The stable SV40 large T antigen transformed hTERT RPE-1 cell line was then maintained in culture media supplemented 500 μg/ml G418. For chronic treatment with ATR inhibitor (ATRi, VE-821) or ATM inhibitor (ATMi, KU-55933), cells were maintained in media with 5 μM ATR or ATM inhibitor respectively for 8 days before cells were subjected to western blot analysis, proteomic analysis, DR-GFP/EJ5-GFP assay or immunofluorescent staining. For CHK1 inhibitor (UCN-01), cells were treated for 5 days with 0.2 μM of inhibitor before the analysis. Primary human fibroblast cells from control subjects (GM08398) and patients with Seckel syndrome (GM18366, ATR-defective) were obtained from Coriell Institute for Medical Research, Camden, N.J.
(§5) Cells were harvested and lysed in modified radioimmunoprecipitation assay (RIPA) buffer (50 mM Tris-HCl pH 7.5, 150 mM NaCl, 1% tergitol, 0.25% sodium deoxycholate, 5 mM EDTA) supplemented with Complete EDTA-free protease inhibitor cocktail (Roche), 1 mM PMSF, 5 mM sodium fluoride, 10 mM β-glycerol-phosphate and 0.4 mM sodium orthovanadate. Whole cell lysates were cleared with 5 minute centrifugation at 13,000 rpm at 4° C. and mixed with 3×SDS sample buffer (bromophenol blue, stacking gel buffer, 50% glycerol, 3% SDS and 60 mM DTT). After being resolved on SDS-PAGE gels, proteins were then transferred onto polyvinylidene difluoride (PVDF) membranes and detected with designated antibodies.

U2OS cells [3] = test: Cycloheximide protein stability western blot; conditions: CHX 50 μg/ml with 5 μM ATRi vs CHX alone
Description: Fresh media containing CHX or CHX/ATRi was added every 6 hours. The right panel is a bar graph generated by measuring the intensity of the BRCA1 band from three independent experiments. Two-tailed Student's t-test was used for the statistics (Error bars=SD, N=3, ****P-value<0.0001).
as §5

U2OS cells [4] = test: DNA damage in cells undergoing chronic ATR inhibition alone
[5] = tested on: HCT116 (colon cancer) and indicated cancer cell lines; test: Immunoblotting of HR factor abundance in cancer cell lines; conditions: cancer cells; 5 μM ATRi, 8 days
Description: as §1, §2, §3

U2OS cells [6] = test: DR-GFP assay of HR-mediated repair
Description: as §4
For the DR-GFP assay, cells (U2OS, HCT116, hTERT RPE-1, HEK293T, HeLa, U87, T98G, A2780, 293-T-REX-E2F6 cells and SV40 large T antigen transformed hTERT RPE-1) were transfected with the mCherry plasmid or DR-GFP reporter plasmid (pDR-GFP; addgene plasmid 26475) together with a plasmid coding for I-SceI (pCBASceI; addgene plasmid 26477) or DR-GFP reporter plasmid together with an empty plasmid pCAGGS. Two days after transfection, cells were trypsinized, resuspended in PBS and then analyzed by flow cytometry using FACSAria Fusion or Accuri C6 cytometer (BD). In each experiment, the percentage of GFP-positive cells from the sample transfected with empty plasmid pCAGGS was subtracted from the percentage of GFP-positive cells in the sample transfected with I-SceI. The GFP percentage was then normalized by the mCherry transfection efficiency. Each graph was plotted based on at least 3 independent experiments showing mean±SEM (N≥3). For the EJ5-GFP assay, EJ5-GFP reporter plasmid (pimEJ5GFP, addgene plasmid 44026) was used instead of DR-GFP reporter plasmid and the assay was performed as described for DR-GFP assay.

hTERT RPE-1 cells [7] = test: DR-GFP assay of HR-mediated repair; conditions: ATRi 8 days vs 2 days
Description: as §1, §2
(§6) For the DR-GFP assay, cells (U2OS, HCT116, hTERT RPE-1, HEK293T, HeLa, U87, T98G, A2780, 293-T-REX-E2F6 cells and SV40 large T antigen transformed hTERT RPE-1) were transfected with the mCherry plasmid or DR-GFP reporter plasmid (pDR-GFP; addgene plasmid 26475) together with a plasmid coding for I-SceI (pCBASceI; addgene plasmid 26477) or DR-GFP reporter plasmid together with an empty plasmid pCAGGS. Two days after transfection, cells were trypsinized, resuspended in PBS and then analyzed by flow cytometry using FACSAria Fusion or Accuri C6 cytometer (BD). […]

[8] = tested on: HCT116 colon cancer cell line; test: DR-GFP assay of HR-mediated repair; conditions: ATRi 8 days vs 2 days
Description: as §1, §2, §6

U2OS cells [9] = test: EJ5-GFP (NHEJ) assay; conditions: 5 μM ATRi, 8 days
Description: Human U2OS, HCT116, hTERT RPE-1, HEK293T, HeLa, U87, T98G, A2780, and human skin fibroblast cells (GM08398 and GM18366) were grown in DMEM media supplemented with 10% bovine calf serum, penicillin/streptomycin and non-essential amino acids. SV40 large T antigen transformed hTERT RPE-1 cells were generated by infecting hTERT RPE-1 cells with a SV40 large T antigen (SV40 LT)-expressing retrovirus and were selected using 500 μg/ml G418. The stable SV40 large T antigen transformed hTERT RPE-1 cell line was then maintained in culture media supplemented 500 μg/ml G418. […]
as §6

U2OS cells [10] = test: Cell cycle analysis (propidium iodide, flow cytometry); conditions: chronic 5 μM ATRi
Description: Cells were harvested by standard trypsinization and fixed with 70% ethanol. After fixation, cells from each sample were resuspended in PBS, permeabilized using 0.1% Triton X-100 and treated with RNase A (0.8 mg/ml). Then cells were stained with propidium iodide and analyzed by flow cytometry using FACSAria Fusion (BD) or Accuri C6 cytometer (BD) to determine the fraction of cells in different stages of the cell cycle.

## CS(=O)(=O)c1ccc(-c2cnc(N)c(C(=O)Nc3ccccc3)n2)cc1 [ATRi, VE-821]
hTERT RPE-1 cells [1]
  Abundance of BRCA1 (WB): did not result in major changes in the abundance of BRCA1
U2OS cells [2]; 5 μM ATRi, 8 days
  Changes in abundance of NHEJ factors 53BP1 and PTIP (WB): minimal
U2OS cells [2]; 5 μM ATRi, after 2 and 4 days
  Changes in protein abundance, time course (WB): minor changes in protein abundance
U2OS cells [2]; 5 μM ATRi, after 6 and 8 days
  Changes in protein abundance, time course (WB): changes become more striking
U2OS cells [2]; chronic ATR inhibition
  Abundance of several proteins involved in HR-mediated repair (WB): severely reduced
U2OS cells [2]; chronic ATR inhibition, 5 μM, 8 days
  Protein levels of RAD51 and TOPBP1 (WB): reduced
U2OS cells [3]
  Abundance of the other HR proteins monitored in CHX-treated cells: did not change
  Protein levels of BRCA1 in CHX-treated cells: decreased
U2OS cells [4]
  DNA damage: not detectable
[5]
  Abundance of BRCA1 (WB): severe reduction in the abundance of BRCA1
U2OS cells [6]; 5 μM, chronic 8 days
  HR-mediated repair efficiency (DR-GFP, GFP positive cells over DMSO): strikingly more severe impairment in HR-mediated repair as compared to short-term ATR inhibition
U2OS cells [6]; short-term (2 days) ATRi
  HR (DR-GFP) upon short-term ATR inhibition: modest reduction in HR
hTERT RPE-1 cells [7]
  HR-mediated repair efficiency (DR-GFP), chronic vs short-term (2 day) treatment: did not result in a striking drop in HR-mediated repair efficiency
[8]
  HR-mediated repair efficiency (DR-GFP), chronic vs short-term treatment: significantly more severe than that of short-term treatment
U2OS cells [9]
  NHEJ efficiency (EJ5-GFP): does not result in a significant change in NHEJ efficiency
U2OS cells [10]
  Cell cycle distribution (S-phase cells): minor increase in the number of S-phase cells; also recorded: slight increase in S phase cells
